Broadly, the IC50 is the point on the concentration scale where inhibition reaches its midpoint. Read a low IC50 as greater potency in that assay.

Sequence of Escherichia coli DNA gyrase A/B tetramer (P0AES4 whole entry, one chain of several): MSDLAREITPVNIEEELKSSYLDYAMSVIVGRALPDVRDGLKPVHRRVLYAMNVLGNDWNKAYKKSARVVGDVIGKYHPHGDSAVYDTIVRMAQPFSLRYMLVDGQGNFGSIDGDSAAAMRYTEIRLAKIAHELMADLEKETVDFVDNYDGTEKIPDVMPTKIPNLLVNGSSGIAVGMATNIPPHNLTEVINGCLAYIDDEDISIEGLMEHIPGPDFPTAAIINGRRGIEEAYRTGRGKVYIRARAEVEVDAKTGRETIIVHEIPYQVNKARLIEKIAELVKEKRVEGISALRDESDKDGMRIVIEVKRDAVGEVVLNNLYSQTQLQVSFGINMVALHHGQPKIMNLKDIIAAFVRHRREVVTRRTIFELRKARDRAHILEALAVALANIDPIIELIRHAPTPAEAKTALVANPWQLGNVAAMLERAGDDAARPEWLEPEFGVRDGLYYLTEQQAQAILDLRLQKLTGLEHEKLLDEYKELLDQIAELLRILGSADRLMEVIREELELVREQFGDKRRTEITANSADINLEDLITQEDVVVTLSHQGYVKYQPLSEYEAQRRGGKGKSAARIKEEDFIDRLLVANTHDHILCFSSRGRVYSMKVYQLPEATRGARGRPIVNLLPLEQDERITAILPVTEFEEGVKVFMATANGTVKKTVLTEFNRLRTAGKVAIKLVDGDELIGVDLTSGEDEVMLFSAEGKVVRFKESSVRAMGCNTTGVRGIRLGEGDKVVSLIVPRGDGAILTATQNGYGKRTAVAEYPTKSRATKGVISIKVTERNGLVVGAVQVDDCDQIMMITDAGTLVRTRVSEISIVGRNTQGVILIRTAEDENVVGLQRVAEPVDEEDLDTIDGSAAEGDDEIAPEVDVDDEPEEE

This assay addresses Escherichia coli DNA gyrase A/B tetramer (Escherichia coli, UniProt P0AES4+P0AES6). In words: DNA gyrase supercoiling activity fluorescence polarisation assay. The assay is classed as biochemical. An outline of the steps:
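5 nM gyrase supercoils 130 μg/ml relaxed triplex-sequence plasmid with 0.3 mM ATP in Tris pH 7.5/KCl/MgCl2/spermidine buffer, 0.8% DMSO, ~30 min at ambient temperature, 5-10 compound concentrations. Quenched with 40 nM BODIPY-FL triplex probe at pH 3.5; anisotropy read after 60 min (485/535 nm). IC50 by nonlinear regression against no-compound and 5 uM ciprofloxacin controls.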
For orientation: Polarisation of emitted light reports the rotation of a fluorescent probe.
`C[C@@H]1CN2c3c(F)cc(C#Cc4cccs4)cc3CC3(C(=O)NC(=O)NC3=O)[C@H]2[C@H](C)O1` (relative stereo) [Example 40, (2R,4S,4aS)-rel-10-Fluoro-2,4-dimethyl-8-(thiophen-2-ylethynyl)-1,2,4,4a-tetrahydro-2′H,6H-spiro[1,4-oxazino[4,3-a]quinoline-5,5′-pyrimidine]-2′,4′,6′(1′H,3′H)-trione]: half-maximal inhibition (IC50) required 1140 nM.
`C[C@@H]1CN2c3c(F)cc(C#Cc4nncs4)cc3CC3(C(=O)NC(=O)NC3=O)[C@H]2[C@H](C)O1` (relative stereo) [Example 36, (2R,4S,4aS)-rel-10-Fluoro-2,4-dimethyl-8-(1,3,4-thiadiazol-2-ylethynyl)-1,2,4,4a-tetrahydro-2′H,6H-spiro[1,4-oxazino[4,3-a]quinoline-5,5′-pyrimidine]-2′,4′,6′(1′H,3′H)-trione] gave an IC50 of 710 nM.
Regarding `C[C@@H]1CN2c3cc(F)c(C#Cc4cncs4)cc3CC3(C(=O)NC(=O)NC3=O)[C@H]2[C@H](C)O1` (relative stereo) [Example 27, (2R,4S,4 aS)-rel-9-Fluoro-2,4-dimethyl-8-(1,3-thiazol-5-ylethynyl)-1,2,4,4a-tetrahydro-2′H,6H-spiro[1,4-oxazino[4,3-a]quinoline-5,5′-pyrimidine]-2′,4′,6′(1′H,3′H)-trione], the IC50 came out at 830 nM.
`C/C(=N\Nc1ccccn1)c1cc2c(c(F)c1F)N1C[C@@H](C)O[C@@H](C)[C@@H]1C1(C2)C(=O)NC(=O)NC1=O` (relative stereo) [Example 57, (2R,4S,4aS)-rel-9,10-Difluoro-2,4-dimethyl-8-{(1E)-1-[2-(pyridin-2-yl)hydrazinylidene]ethyl}-1,2,4,4a-tetrahydro-2′H,6H-spiro[1,4-oxazino[4,3-a]quinoline-5,5′-pyrimidine]-2′,4′,6′(1′H,3′H)-trione]: the 50% inhibitory concentration (IC50) was found to be 850 nM.
Next, `C[C@@H]1CN2c3ccc(C#Cc4ccncc4)cc3CC3(C(=O)NC(=O)NC3=O)[C@H]2[C@H](C)O1` (relative stereo) [Example 3, (2R,4S,4aS)-rel-2,4-Dimethyl-8-(pyridin-4-ylethynyl)-1,2,4,4a-tetrahydro-2′H,6H-spiro[1,4-oxazino[4,3-a]quinoline-5,5′-pyrimidine]-2′,4′,6′(1′H,3′H)-trione]: 2480 nM.
As to `C[C@@H]1CN2c3cc(F)c(C#Cc4nccs4)cc3CC3(C(=O)NC(=O)NC3=O)[C@H]2[C@H](C)O1` (relative stereo) [Example 26, (2R,4S,4aS)-rel-9-Fluoro-2,4-dimethyl-8-(1,3-thiazol-2-ylethynyl)-1,2,4,4a-tetrahydro-2′H,6H-spiro[1,4-oxazino[4,3-a]quinoline-5,5′-pyrimidine]-2′,4′,6′(1′H,3′H)-trione], the half-maximal inhibitory concentration (IC50) is 1080 nM.
Next, `C[C@@H]1CN2c3c(cc(C#Cc4nccn4C)c(F)c3F)CC3(C(=O)NC(=O)NC3=O)[C@H]2[C@H](C)O1` (racemic) [Example 12, (2R,4S,4aS)-rel-9,10-Difluoro-2,4-dimethyl-8-[(1-methyl-1H-imidazol-2-yl)ethynyl]-1,2,4,4a-tetrahydro-2′H,6H-spiro[1,4-oxazino≡[4,3-a]quinoline-5,5′-pyrimidine]-2′,4′,6′(1′H,3H)-trione]: 690 nM.
The compound `C/C(=N\Nc1ccccc1)c1cc2c(c(F)c1F)N1C[C@@H](C)O[C@@H](C)[C@@H]1C1(C2)C(=O)NC(=O)NC1=O` (relative stereo) [Example 58, (2R,4S,4aS)-rel-9,10-Difluoro-2,4-dimethyl-8-[(1E)-1-(2-phenylhydrazinylidene)ethyl]-1,2,4,4a-tetrahydro-2′H,6H-spiro[1,4-oxazino[4,3-a]quinoline-5,5′-pyrimidine]-2′,4′,6′(1′H,3′H)-trione] registered an IC50 of 980 nM.
Compound `C[C@@H]1CN2c3c(cc(C#Cc4ccc(-c5nnn[nH]5)s4)c(F)c3F)CC3(C(=O)NC(=O)NC3=O)[C@H]2[C@H](C)O1` (relative stereo) [Example 14, (2R,4S,4aS)-rel-9,10-Difluoro-2,4-dimethyl-8-{[5-(1H-tetrazol-5-yl)thiophen-2-yl]ethynyl}-1,2,4,4a-tetrahydro-2′H,6H-spiro[1,4-oxazino[4,3-a]quinoline-5,5′-pyrimidine]-2′,4′,6′(1′H,3′H)-trione] gave an IC50 of 1120 nM.
As to `C[C@@H]1CN2c3cc(F)c(C#Cc4cccnc4)cc3CC3(C(=O)NC(=O)NC3=O)[C@H]2[C@H](C)O1` (relative stereo) [Example 32, (2R,4S,4aS)-rel-9-Fluoro-2,4-dimethyl-8-(pyridin-3-ylethynyl)-1,2,4,4a-tetrahydro-2′H,6H-spiro[1,4-oxazino[4,3-a]quinoline-5,5′-pyrimidine]-2′,4′,6′(1′H,3′H)-trione], the IC50 amounted to 2240 nM.
Next, `C[C@H]1CN2c3c(cc(C#Cc4ncccn4)c(F)c3F)CC3(C(=O)NC(=O)NC3=O)[C@@H]2[C@@H](C)O1` (relative stereo) [Example 19, (2S,4R,4aR)-rel-9,10-Difluoro-2,4-dimethyl-8-(pyrimidin-2-ylethynyl)-1,2,4,4a-tetrahydro-2′H,6H-spiro[1,4-oxazino[4,3-a]quinoline-5,5′-pyrimidine]-2′,4′,6′(1′H,3′H)-trione]: 520 nM; `C[C@@H]1CN2c3c(F)cc(C#Cc4cnccn4)cc3CC3(C(=O)NC(=O)NC3=O)[C@H]2[C@H](C)O1` (relative stereo) [Example 43, (2R,4S,4aS)-rel-10-Fluoro-2,4-dimethyl-8-(pyrazin-2-ylethynyl)-1,2,4,4a-tetrahydro-2′H,6H-spiro[1,4-oxazino[4,3-a]quinoline-5,5′-pyrimidine]-2′,4′,6′(1′H,3′H)-trione]: 1470 nM.
Next, `C[C@@H]1CN2c3c(cc(C(=O)NC4CCOCC4)c(F)c3F)CC3(C(=O)NC(=O)NC3=O)[C@H]2[C@H](C)O1` (relative stereo) [Example 66, (2R,4S,4aS)-rel-9,10-Difluoro-2,4-dimethyl-2′,4′,6′-trioxo-N-(tetrahydro-2H-pyran-4-yl)-1,1′,2,3′,4,4′,4a,6′-octahydro-2′H,6H-spiro[1,4-oxazino[4,3-a]quinoline-5,5′-pyrimidine]-8-carboxamide]: 5860 nM; `C[C@@H]1CN2c3c(cc(C#Cc4ccc(-c5ccn[nH]5)s4)c(F)c3F)CC3(C(=O)NC(=O)NC3=O)[C@H]2[C@H](C)O1` (relative stereo) [Example 17, (2R,4S,4aS)-rel-9,10-Difluoro-2,4-dimethyl-8-{[5-(1H-pyrazol-5-yl)thiophen-2-yl]ethynyl}-1,2,4,4a-tetrahydro-2′H,6H-spiro[1,4-oxazino[4,3-a]quinoline-5,5′-pyrimidine]-2′,4′,6′(1′H,3′H)-trione]: 1840 nM; `C[C@@H]1CN2c3c(cc(C(=O)NC4CCOC4=O)c(F)c3F)CC3(C(=O)NC(=O)NC3=O)[C@H]2[C@H](C)O1` (relative stereo) [Example 61, (2R,4S,4aS)-rel-9,10-Difluoro-2,4-dimethyl-2′,4′,6′-trioxo-N-(2-oxotetrahydrofuran-3-yl)-1,1′,2,3′,4,4′,4a,6′-octahydro-2′H,6H-spiro[1,4-oxazino[4,3-a]quinoline-5,5′-pyrimidine]-8-carboxamide]: 4840 nM.
Next, `C[C@@H]1CN2c3ccc(C#Cc4nccn4C)cc3CC3(C(=O)NC(=O)NC3=O)[C@H]2[C@H](C)O1` (relative stereo) [Example 4, (2R,4S,4aS)-rel-2,4-Dimethyl-8-[(1-methyl-1H-imidazol-2-yl)ethynyl]-1,2,4,4a-tetrahydro-2′H,6H-spiro[1,4-oxazino[4,3-a]quinoline-5,5′-pyrimidine]-2′,4′,6′(1′H,3′H)-trione]: 630 nM; `C[C@@H]1CN2c3ccc(NC(=O)N(C)C)cc3CC3(C(=O)NC(=O)NC3=O)[C@H]2[C@H](C)O1` (relative stereo) [Example 77, 3-[(2R,4S,4aS)-rel-2,4-Dimethyl-2′,4′,6′-trioxo-1,1′,2,3′,4,4′,4a,6′-octahydro-2′H,6H-spiro[1,4-oxazino[4,3-a]quinoline-5,5′-pyrimidin]-8-yl]-1,1-dimethylurea]: 21700 nM.
In turn, `C[C@@H]1CN2c3cc(F)c(C#Cc4nc5ccccc5o4)cc3CC3(C(=O)NC(=O)NC3=O)[C@H]2[C@H](C)O1` (relative stereo) [Example 35, (2R,4S,4aS)-rel-8-(1,3-Benzoxazol-2-ylethynyl)-9-fluoro-2,4-dimethyl-1,2,4,4a-tetrahydro-2′H,6H-spiro[1,4-oxazino[4,3-a]quinoline-5,5′-pyrimidine]-2′,4′,6′(1′H,3′H)-trione] registered a half-inhibitory concentration (IC50) of 1480 nM.
In turn, `C[C@@H]1CN2c3cc(F)c(C#Cc4cc5ccccc5s4)cc3CC3(C(=O)NC(=O)NC3=O)[C@H]2[C@H](C)O1` (racemic) [Example 29, (2R,4S,4aS)-rel-8-(1-Benzothiophen-2-ylethynyl)-9-fluoro-2,4-dimethyl-1,2,4,4a-tetrahydro-2′H,6H-spiro[1,4-oxazino[4,3-a]quinoline-5,5′-pyrimidine]-2′,4′,6′(1′H,3′H)-trione] came in with an IC50 of 20000 nM.

Source of the values: patent US20100261719A1, “CHEMICAL COMPOUNDS” (priority 2007, published 2010).
